The record followed here is ChEMBL document CHEMBL1134774, “Design, synthesis, and structure-activity relationships of a series of 3-[2-(1-benzylpiperidin-4-yl)ethylamino]pyridazine derivatives as acetylcholinesterase inhibitors” (J Med Chem, 2001).

Assay [1] addresses Acetylcholinesterase (Electrophorus electricus, UniProt O42275).
Description: In vitro inhibition of electric eel acetylcholinesterase
Assay [2] has as its target T1, Choline O-acetyltransferase (Rattus norvegicus) (UniProt P32738).
T1 sequence (whole entry): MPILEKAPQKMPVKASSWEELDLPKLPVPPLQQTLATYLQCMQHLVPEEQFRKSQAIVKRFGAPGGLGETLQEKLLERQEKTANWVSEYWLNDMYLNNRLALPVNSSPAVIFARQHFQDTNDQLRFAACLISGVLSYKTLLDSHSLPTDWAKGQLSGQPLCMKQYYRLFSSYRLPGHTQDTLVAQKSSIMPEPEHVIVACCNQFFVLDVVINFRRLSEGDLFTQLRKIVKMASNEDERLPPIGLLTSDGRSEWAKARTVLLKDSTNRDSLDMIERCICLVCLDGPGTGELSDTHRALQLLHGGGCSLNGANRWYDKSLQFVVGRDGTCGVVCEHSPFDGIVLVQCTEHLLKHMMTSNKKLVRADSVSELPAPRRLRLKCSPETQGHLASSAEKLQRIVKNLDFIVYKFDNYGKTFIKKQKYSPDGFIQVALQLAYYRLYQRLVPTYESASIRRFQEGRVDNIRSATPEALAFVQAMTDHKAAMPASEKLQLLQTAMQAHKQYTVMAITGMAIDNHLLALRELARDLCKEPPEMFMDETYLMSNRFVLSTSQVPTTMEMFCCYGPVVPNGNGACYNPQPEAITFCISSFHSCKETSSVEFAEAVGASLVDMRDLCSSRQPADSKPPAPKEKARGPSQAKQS
Briefly: IC50 (hBuChE/hAChE) ratio of the compound.

Assay [3] deals with Acetylcholinesterase (Homo sapiens, UniProt P22303).
Description: In vitro inhibition of acetylcholinesterase from human erythrocytes
A further assay has as its target Cholinesterase (Homo sapiens, UniProt P06276).

The structures appear in SMILES notation.

Cholinesterase, sequence (P06276 whole entry): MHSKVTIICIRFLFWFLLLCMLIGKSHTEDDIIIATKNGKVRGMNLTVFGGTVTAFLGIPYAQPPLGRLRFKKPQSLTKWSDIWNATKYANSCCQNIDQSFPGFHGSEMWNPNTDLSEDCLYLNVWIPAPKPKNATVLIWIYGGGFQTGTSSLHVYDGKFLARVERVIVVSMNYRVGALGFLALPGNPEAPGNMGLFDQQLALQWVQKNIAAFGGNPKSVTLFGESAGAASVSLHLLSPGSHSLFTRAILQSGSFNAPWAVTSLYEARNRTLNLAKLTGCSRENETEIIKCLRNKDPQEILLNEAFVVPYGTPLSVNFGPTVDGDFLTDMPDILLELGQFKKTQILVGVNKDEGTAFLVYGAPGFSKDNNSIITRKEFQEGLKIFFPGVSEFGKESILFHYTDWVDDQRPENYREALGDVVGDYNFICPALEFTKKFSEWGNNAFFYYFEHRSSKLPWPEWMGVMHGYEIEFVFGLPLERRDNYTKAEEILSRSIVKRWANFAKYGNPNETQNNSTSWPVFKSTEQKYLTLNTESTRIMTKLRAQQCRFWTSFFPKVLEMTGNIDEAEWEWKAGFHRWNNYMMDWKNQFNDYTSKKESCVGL
Acetylcholinesterase (Homo sapiens, UniProt P22303), sequence (P22303 whole entry): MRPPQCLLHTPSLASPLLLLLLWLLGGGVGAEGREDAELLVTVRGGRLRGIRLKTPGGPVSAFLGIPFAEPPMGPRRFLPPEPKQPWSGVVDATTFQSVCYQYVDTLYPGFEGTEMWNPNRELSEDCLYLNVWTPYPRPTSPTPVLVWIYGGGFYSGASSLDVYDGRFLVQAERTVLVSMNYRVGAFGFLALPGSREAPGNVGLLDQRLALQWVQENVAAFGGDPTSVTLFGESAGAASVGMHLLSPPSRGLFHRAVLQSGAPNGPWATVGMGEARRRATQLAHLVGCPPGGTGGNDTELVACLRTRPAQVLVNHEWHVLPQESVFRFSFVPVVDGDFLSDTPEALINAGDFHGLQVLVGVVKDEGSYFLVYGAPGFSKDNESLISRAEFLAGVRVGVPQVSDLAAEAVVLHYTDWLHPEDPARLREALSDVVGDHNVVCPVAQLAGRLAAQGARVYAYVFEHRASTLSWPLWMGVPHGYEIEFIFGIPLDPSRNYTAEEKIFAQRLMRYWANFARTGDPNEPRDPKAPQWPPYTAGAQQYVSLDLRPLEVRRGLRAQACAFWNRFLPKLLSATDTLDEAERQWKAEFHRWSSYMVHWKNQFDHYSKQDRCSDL
Acetylcholinesterase (Electrophorus electricus, UniProt O42275), sequence (O42275 whole entry): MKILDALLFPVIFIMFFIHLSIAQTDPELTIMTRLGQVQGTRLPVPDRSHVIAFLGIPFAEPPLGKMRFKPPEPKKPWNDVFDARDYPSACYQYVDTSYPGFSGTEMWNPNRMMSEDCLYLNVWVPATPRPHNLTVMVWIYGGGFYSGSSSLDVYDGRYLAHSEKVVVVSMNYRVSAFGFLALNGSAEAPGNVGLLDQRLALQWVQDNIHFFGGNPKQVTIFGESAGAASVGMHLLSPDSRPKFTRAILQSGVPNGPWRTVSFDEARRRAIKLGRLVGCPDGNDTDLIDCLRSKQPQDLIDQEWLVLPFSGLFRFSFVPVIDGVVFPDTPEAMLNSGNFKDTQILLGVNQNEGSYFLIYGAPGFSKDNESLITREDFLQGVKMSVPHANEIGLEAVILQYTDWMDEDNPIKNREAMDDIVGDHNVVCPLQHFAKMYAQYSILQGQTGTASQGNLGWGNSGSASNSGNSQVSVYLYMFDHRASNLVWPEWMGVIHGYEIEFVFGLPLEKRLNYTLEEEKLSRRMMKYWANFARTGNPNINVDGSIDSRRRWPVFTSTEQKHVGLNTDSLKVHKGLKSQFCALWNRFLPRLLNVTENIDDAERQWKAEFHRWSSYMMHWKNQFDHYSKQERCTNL

As to `FC(F)(F)c1cc(-c2ccc(NCCC3CCN(Cc4ccccc4)CC3)nn2)cc(C(F)(F)F)c1`, on Acetylcholinesterase [1], the half-inhibitory concentration (IC50) – broadly, the point on the concentration scale where inhibition reaches its midpoint – came out at 0.056 µM. On to `c1ccc(CN2CCC(CCNc3cc4c(nn3)-c3ccccc3CC4)CC2)cc1`, for which, in assay [2], the IC50 ratio was 1.5. For the same molecule, the concentration for half-maximal inhibition (IC50) on Acetylcholinesterase [1] came to 0.039 µM; against Acetylcholinesterase [3] it was 0.19 µM; at Cholinesterase, 0.28 µM. Molecule `Clc1ccc(NCCC2CCN(Cc3ccccc3)CC2)nn1` displayed an IC50 against Acetylcholinesterase [1] of 0.073 µM.

As to `CCc1ccccc1-c1ccc(NCCC2CCN(Cc3ccccc3)CC2)nn1`, the midpoint of inhibition at Acetylcholinesterase [1], the IC50, lay at 0.087 µM. Still for that read-out and setting: then `c1ccc(CN2CCC(CCNc3cccnn3)CC2)cc1`, with 0.24 µM; and `Cc1cc(-c2ccccc2)nnc1NCCC1CCN(Cc2ccccc2)CC1`, with 0.32 µM; and `O=C(CNc1ccc(-c2ccccc2)nn1)N1CCC(Cc2ccccc2)CC1`, with 120 µM.

`CN(C)c1ccc(-c2ccc(NCCC3CCN(Cc4ccccc4)CC3)nn2)cc1` yielded an IC50 on Acetylcholinesterase [1] of 0.21 µM. On the same count and under the same terms, the same measure for `CC(=O)Nc1cccc(-c2ccc(NCCC3CCN(Cc4ccccc4)CC3)nn2)c1`: 0.058 µM; for `Fc1ccc(-c2ccc(NCCC3CCN(Cc4ccccc4)CC3)nn2)cc1`: 0.35 µM. Same read-out and setting: then `c1ccc(CN2CCC(CCNc3ccc(-c4ccc5ccccc5c4)nn3)CC2)cc1`, with 0.056 µM; and `O=C(CN1CCC(Cc2ccccc2)CC1)Nc1ccc(-c2ccccc2)nn1`, with 18 µM. At Acetylcholinesterase [1], `N#Cc1ccc(-c2ccc(NCCC3CCN(Cc4ccccc4)CC3)nn2)cc1` displayed an IC50 of 0.1 µM. On the same count and under the same terms, the same measure for `Cc1ccccc1-c1ccc(NCCC2CCN(Cc3ccccc3)CC2)nn1`: 0.09 µM.

In the case of `c1ccc(CN2CCC(CCOc3ccc(-c4ccccc4)nn3)CC2)cc1`, the IC50 on Acetylcholinesterase [1] amounted to 140 µM; at Acetylcholinesterase [3], 0.71 µM; at Cholinesterase it was 1.6 µM.

The molecule `O=C(CNc1ccc(-c2ccccc2)nn1)N1CCN(Cc2ccccc2)CC1` registered an IC50 at Acetylcholinesterase [1] of 15 µM. For the molecule `Cc1cc(=NCCC2CCN(Cc3ccccc3)CC2)[nH]nc1-c1ccccc1`, the IC50 ratio in assay [2] was determined as 24. The half-maximal inhibitory concentration (IC50) at Acetylcholinesterase [1] was 0.021 µM; at Acetylcholinesterase [3], 0.039 µM; on Cholinesterase it was 0.94 µM. In the case of `c1ccc(CN2CCC(CCN=c3cc4c(n[nH]3)-c3ccccc3C4)CC2)cc1`, in assay [2], the IC50 ratio was found to be 3.1. Besides, the IC50 amounted to 0.01 µM against Acetylcholinesterase [1], 0.074 µM against Acetylcholinesterase [3] and 0.23 µM on Cholinesterase.

On Acetylcholinesterase [1], `CCCc1cc(=NCCC2CCN(Cc3ccccc3)CC2)[nH]nc1-c1ccccc1` came in with an IC50 of 0.061 µM. Same read-out and setting: then `Cc1cc(C)c(-c2ccc(NCCC3CCN(Cc4ccccc4)CC3)nn2)c(C)c1`, with 3 µM; and `COc1ccc(NCCC2CCN(Cc3ccccc3)CC2)nn1`, with 0.22 µM; and `O=C(CC1CCN(Cc2ccccc2)CC1)Nc1ccc(-c2ccccc2)nn1`, with 4.2 µM.

For `c1ccc(CN2CCC(CCNc3ccc(-c4ccccc4)nn3)CC2)cc1`, the IC50 ratio in assay [2] was found to be 5. The same molecule registered a half-maximal inhibitory concentration (IC50) against Acetylcholinesterase [1] of 0.12 µM. In the case of `CCc1cc(=NCCC2CCN(Cc3ccccc3)CC2)[nH]nc1-c1ccccc1`, in assay [2], the IC50 ratio was 14. In addition, the half-maximal inhibitory concentration (IC50) at Acetylcholinesterase [1] worked out at 0.027 µM; on Acetylcholinesterase [3], 0.066 µM; against Cholinesterase, 0.92 µM. `c1ccc(CN2CCC(CCN=c3[nH]nc(-c4ccccc4)c4ccccc34)CC2)cc1` came in with an IC50 against Acetylcholinesterase [1] of 0.44 µM.

On Acetylcholinesterase [1], `COc1ccccc1-c1ccc(NCCC2CCN(Cc3ccccc3)CC2)nn1` yielded an IC50 of 0.11 µM.

In the case of `CC(C)c1cc(-c2ccccc2)nnc1NCCC1CCN(Cc2ccccc2)CC1`, the half-inhibitory concentration (IC50) at Acetylcholinesterase [1] worked out at 0.43 µM. Take `c1ccc(CN2CCC(CCNc3cc4ccc5ccccc5c4nn3)CC2)cc1`: the values for the concentration for half-maximal inhibition (IC50) against Acetylcholinesterase [1], at Acetylcholinesterase [3] and against Cholinesterase were 0.022 µM, 0.19 µM and 0.27 µM, respectively. `c1ccc(CN2CCC(CCNc3cc4c(nn3)-c3ccccc3CCC4)CC2)cc1`: the IC50 against Acetylcholinesterase [1] came out at 0.022 µM; at Acetylcholinesterase [3] it was 0.12 µM; against Cholinesterase, 0.51 µM. On to `c1ccc(CN2CCC(CCNc3ccc(-c4cccs4)nn3)CC2)cc1`, for which the half-maximal inhibitory concentration (IC50) against Acetylcholinesterase [1] was determined as 0.097 µM. In turn, `Clc1ccccc1-c1ccc(NCCC2CCN(Cc3ccccc3)CC2)nn1` came in with a half-inhibitory concentration (IC50) at Acetylcholinesterase [1] of 0.08 µM. Still for that read-out and setting: then `c1ccc(CN2CCC(CCNc3ccc(-c4cccnc4)nn3)CC2)cc1`, with 0.057 µM; and `CC(=O)c1cccc(-c2ccc(NCCC3CCN(Cc4ccccc4)CC3)nn2)c1`, with 0.054 µM.

At Acetylcholinesterase [1], `c1ccc(CC2CCN(CCNc3ccc(-c4ccccc4)nn3)CC2)cc1` gave an IC50 of 24 µM. As to `c1ccc(CN2CCC(CCSc3ccc(-c4ccccc4)nn3)CC2)cc1`, the IC50 against Acetylcholinesterase [1] was 63 µM; against Acetylcholinesterase [3], 0.47 µM; on Cholinesterase it was 0.48 µM.

As for `O=C(CN1CCN(Cc2ccccc2)CC1)Nc1ccc(-c2ccccc2)nn1`, at Acetylcholinesterase [1], the concentration for half-maximal inhibition (IC50) was found to be 17 µM.
